Source: the supplement of paper PMC10331698
± gives the standard deviation of the averaged measurements.

Legend:
Experiment in all cases: level (log10 ratio to DMSO vehicle control); higher = higher biomarker level / cell amount than vehicle control
[1] = compound: C=C(C)C(=O)OCCC(F)(F)C(F)(F)C(F)(F)C(F)(F)C(F)(C(F)(F)F)C(F)(F)F [(Perfluoro-5-methylhexyl)ethyl 2-methylprop-2-enoate]; conditions: in DMSO
Description: (§1)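 BioMAP Diversity Plus panel of 12 human primary cell co-culture systems (3C, 4H, LPS, SAg, BT, BF4T, BE3C, CASM3C, HDF3CGF, KF3CT, MyoF, Mphg). Compounds were added 1 h before stimulation and left for 24 h (MyoF 48 h; BT 72 h for soluble read-outs or 6 d for IgG). Biomarkers were read by ELISA, cytotoxicity by SRB, PBMC viability and proliferation by Alamar Blue. Each well value was divided by the mean of 8 DMSO control wells on the same plate and log10 transformed; duplicate blinded samples were tested at 4 concentrations.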

[2] = compound: FC(F)(F)C(F)(C(F)(F)F)C(F)(F)C(F)(F)CC1CO1 [3-(Perfluoro-3-methylbutyl)-1,2-propenoxide]; conditions: in DMSO
Description: as §1

[3] = compound: FC(F)(F)C(F)(F)C(F)(F)C(F)(F)C(F)(F)CCI [1-Iodo-1H,1H,2H,2H-perfluoroheptane]; conditions: in DMSO
Description: as §1

Heptafluorobutyramide = compound: NC(=O)C(F)(F)C(F)(F)C(F)(F)F [Heptafluorobutyramide]; conditions: in DMSO
Description: as §1

Perfluoropentanoic acid = compound: O=C(O)C(F)(F)C(F)(F)C(F)(F)C(F)(F)F [Perfluoropentanoic acid]; conditions: in DMSO
Description: as §1

Perfluorobutanoic acid = compound: O=C(O)C(F)(F)C(F)(F)C(F)(F)F [Perfluorobutanoic acid]; conditions: in DMSO
Description: as §1

[4] = compound: O=C(O)C(F)(F)C(F)(F)OC(F)(F)F [Perfluoro-3-methoxypropanoic acid]; conditions: in DMSO
Description: as §1

[5] = compound: OCCCC(F)(F)C(F)(F)C(F)(F)C(F)(F)C(F)(F)C(F)(F)C(F)(F)F [7:3 Fluorotelomer alcohol]; conditions: 6700 nM; in DMSO
Description: as §1

| Test System | level (log10) ([1]; 6700 nM) | level (log10) ([1]; 20000 nM) | level (log10) ([2]; 6700 nM) | level (log10) ([2]; 20000 nM) | level (log10) ([3]; 6700 nM) | level (log10) ([3]; 20000 nM) | level (log10) ([3]; 60000 nM) | level (log10) (Heptafluorobutyramide; 6700 nM) | level (log10) (Heptafluorobutyramide; 20000 nM) | level (log10) (Heptafluorobutyramide; 60000 nM) | level (log10) (Perfluoropentanoic acid; 6700 nM) | level (log10) (Perfluoropentanoic acid; 20000 nM) | level (log10) (Perfluoropentanoic acid; 60000 nM) | level (log10) (Perfluorobutanoic acid; 6700 nM) | level (log10) (Perfluorobutanoic acid; 20000 nM) | level (log10) (Perfluorobutanoic acid; 60000 nM) | level (log10) ([4]; 6700 nM) | level (log10) ([4]; 20000 nM) | level (log10) ([4]; 60000 nM) | level (log10) [5] |
| --- | --- | --- | --- | --- | --- | --- | --- | --- | --- | --- | --- | --- | --- | --- | --- | --- | --- | --- | --- | --- |
| SAg:CD38 | -0.011 ± 0.016 | -0.0055 ± 0.015 | -0.0005 ± 0.0021 | 0.015 ± 0.018 | -0.012 ± 0.0042 | 0.007 ± 0.0042 | -0.0125 ± 0.016 | -0.0315 ± 0.029 | -0.03 ± 0.016 | -0.021 ± 0.021 | 0.003 ± 0.017 | 0.0015 ± 0.011 | 0.002 ± 0.0057 | -0.005 | -0.013 ± 0.0085 | -0.012 ± 0.0099 | -0.007 ± 0.0042 | 0.003 ± 0.0085 | -0.0005 ± 0.012 | 0.0245 ± 0.07 |
| 3C:HLA-DR | -0.004 ± 0.016 | -0.023 ± 0.02 | 0.0085 ± 0.00071 | 0.018 ± 0.018 | -0.001 ± 0.016 | 0.006 ± 0.0042 | -0.0035 ± 0.0064 | 0.005 ± 0.0099 | 0.008 ± 0.0057 | -0.007 ± 0.0028 | -0.0075 ± 0.0035 | 0.0015 ± 0.021 | 0.018 ± 0.037 | -0.0035 ± 0.028 | -0.0215 ± 0.00071 | -0.0115 ± 0.021 | -0.0095 ± 0.015 | -0.043 ± 0.0085 | -0.014 ± 0.0028 | -0.002 ± 0.0057 |
| BE3C:CD54/ICAM-1 | -0.0075 ± 0.0021 | 0.005 ± 0.0042 | -0.0095 ± 0.019 | -0.0065 ± 0.0092 | 0 ± 0.013 | -0.016 ± 0.011 | 0.006 ± 0.02 | -0.0195 ± 0.019 | 0.002 ± 0.0014 | 0.0035 ± 0.015 | -0.006 ± 0.0085 | -0.0095 ± 0.00071 | 0.0055 ± 0.039 | -0.0015 ± 0.023 | -0.0165 ± 0.0092 | 0.011 ± 0.025 | 0.003 ± 0.013 | -0.0035 ± 0.0021 | 0.0065 ± 0.011 | -0.0125 ± 0.00071 |
| SAg:CXCL8/IL-8 | 0.0115 ± 0.012 | 0.0405 ± 0.079 | 0.0035 ± 0.0021 | 0.013 ± 0.041 | -0.0585 ± 0.042 | -0.061 ± 0.016 | 0.007 ± 0.042 | 0.015 ± 0.013 | 0.011 ± 0.017 | 0.0085 ± 0.021 | -0.012 ± 0.041 | -0.018 ± 0.044 | -0.013 ± 0.088 | -0.0025 ± 0.0092 | -0.005 ± 0.0085 | 0.0335 ± 0.028 | 0.021 ± 0.0028 | -0.017 ± 0.034 | 0.0095 ± 0.04 | -0.0085 ± 0.025 |
| BE3C:CXCL10/IP-10 | 0.032 ± 0.031 | 0.022 ± 0.021 | -0.0115 ± 0.023 | -0.0065 ± 0.011 | 0.018 ± 0.052 | 0.022 ± 0.033 | 0.004 ± 0.052 | -0.0025 ± 0.00071 | -0.0175 ± 0.012 | 0.0075 ± 0.018 | -0.0085 ± 0.016 | -0.013 ± 0.021 | 0.0005 ± 0.005 | 0.0065 ± 0.00071 | -0.001 ± 0.011 | 0.0085 ± 0.0078 | 0.0025 ± 0.005 | -0.0095 ± 0.0035 | 0.0025 ± 0.011 | 0.011 ± 0.024 |
| 3C:SRB | -0.008 ± 0.0042 | -0.0175 ± 0.0078 | 0.0045 ± 0.0064 | -0.01 ± 0.0057 | 0.006 ± 0.013 | -0.019 ± 0.0042 | -0.0175 ± 0.013 | -0.0235 ± 0.04 | -0.0095 ± 0.0078 | -0.007 ± 0.024 | -0.0115 ± 0.013 | 0.001 ± 0.014 | 0.007 ± 0.018 | -0.021 ± 0.027 | -0.017 ± 0.013 | -0.0085 ± 0.0035 | 0.001 ± 0.0014 | 0.0005 ± 0.019 | -0.004 ± 0.017 | -0.005 ± 0.0028 |
| LPS:SRB | -0.001 ± 0.0028 | -0.0085 ± 0.0021 | 0 ± 0.0042 | -0.0035 ± 0.005 | -0.006 ± 0.0014 | -0.009 ± 0.014 | -0.005 ± 0.0071 | -0.0115 ± 0.015 | -0.009 ± 0.0071 | -0.002 ± 0.0071 | 0.0015 ± 0.0078 | 0.004 | 0.003 ± 0.0085 | -0.006 ± 0.028 | -0.013 ± 0.0071 | -0.001 ± 0.0099 | 0.006 ± 0.0085 | 0.011 ± 0.0099 | 0.026 ± 0.0028 | -0.002 |
| BT:B cell Proliferation | -0.027 ± 0.011 | 0.001 ± 0.017 | -0.002 ± 0.025 | 0.017 ± 0.0099 | -0.0065 ± 0.049 | 0.0095 ± 0.015 | -0.0815 ± 0.023 | 0.0055 ± 0.018 | -0.02 ± 0.025 | -0.003 ± 0.03 | 0.009 ± 0.0057 | 0.0215 ± 0.06 | 0.0275 ± 0.012 | 0.0085 ± 0.00071 | -0.029 ± 0.014 | 0.002 ± 0.0042 | -0.022 ± 0.023 | 0.0015 ± 0.022 | 0.0135 ± 0.005 | -0.011 ± 0.0042 |
| LPS:sPGE2 | -0.038 ± 0.05 | -0.016 ± 0.064 | -0.012 ± 0.023 | -0.0095 ± 0.054 | -0.01 ± 0.042 | -0.0395 ± 0.023 | -0.018 ± 0.0085 | -0.0305 ± 0.057 | 0.011 ± 0.0042 | -0.004 ± 0.0071 | -0.008 ± 0.11 | -0.018 ± 0.0028 | 0.017 ± 0.011 | -0.0045 ± 0.012 | 0.0155 ± 0.025 | -0.0075 ± 0.0035 | -0.0295 ± 0.03 | 0.0045 ± 0.052 | -0.0185 ± 0.011 | 0.101 ± 0.03 |
| BE3C:CXCL8/IL-8 | -0.0065 ± 0.0092 | -0.008 ± 0.024 | 0.011 | 0.0205 ± 0.023 | 0.0285 ± 0.037 | 0.0605 ± 0.023 | 0.086 ± 0.024 | 0.038 ± 0.0014 | 0.0365 ± 0.012 | 0.038 ± 0.051 | -0.023 ± 0.0042 | -0.036 ± 0.017 | -0.0085 ± 0.057 | 0.0155 ± 0.022 | 0.01 ± 0.014 | 0.0155 ± 0.005 | -0.0445 ± 0.0064 | -0.031 ± 0.0028 | -0.007 ± 0.03 | 0.006 ± 0.0028 |
| SAg:SRB | -0.001 ± 0.0042 | -0.0105 ± 0.0078 | -0.006 ± 0.023 | -0.0025 ± 0.0021 | 0.0065 ± 0.011 | 0.0015 ± 0.016 | -0.001 ± 0.0085 | -0.018 ± 0.025 | -0.0125 ± 0.011 | -0.0095 ± 0.018 | -0.007 ± 0.0099 | -0.0035 ± 0.00071 | 0.0055 ± 0.015 | -0.013 ± 0.03 | -0.005 ± 0.02 | -0.0075 ± 0.011 | -0.0025 ± 0.0078 | -0.0005 ± 0.0021 | -0.0045 ± 0.0064 | 0.0045 ± 0.013 |
| BE3C:CXCL9/MIG | 0.009 ± 0.013 | 0.008 ± 0.0071 | -0.005 ± 0.0042 | -0.0035 ± 0.005 | -0.001 ± 0.0014 | -0.008 ± 0.0042 | -0.008 ± 0.013 | 0.002 ± 0.0014 | 0.0015 ± 0.0092 | -0.006 ± 0.0028 | -0.0035 ± 0.0092 | -0.012 ± 0.013 | 0.007 ± 0.018 | 0.002 ± 0.0071 | -0.004 ± 0.013 | -0.0005 ± 0.00071 | 0.005 ± 0.0014 | 0.0095 ± 0.018 | 0.0105 ± 0.0021 | -0.0015 ± 0.0021 |
| 3C:CD87/uPAR | -0.007 ± 0.0028 | -0.019 ± 0.028 | -0.0085 ± 0.00071 | -0.003 ± 0.0028 | -0.0105 ± 0.0092 | -0.0065 ± 0.0092 | 0.0045 ± 0.018 | -0.014 ± 0.082 | -0.0435 ± 0.07 | -0.0375 ± 0.066 | -0.003 ± 0.021 | -0.0045 ± 0.021 | -0.0105 ± 0.015 | 0.0005 ± 0.005 | 0.0105 ± 0.015 | -0.0065 ± 0.011 | -0.016 ± 0.05 | -0.021 ± 0.013 | 0.021 ± 0.021 | -0.003 ± 0.031 |
